Test results from article PMC11345839, “Synthesis and Characterization of Folic Acid-Conjugated Terbium Complexes as Luminescent Probes for Targeting Folate Receptor-Expressing Cells” (Journal of Medicinal Chemistry, 2024).

What was measured:
[1] = parameters: method as in PMID 30296376; conditions: λex = 776 nm; cited from earlier work
[2] = parameters: method as in PMID 30296376; conditions: λex = 776 nm, λem = 793 nm; cited from earlier work
FRα = molecular target: T1, FRα (Homo sapiens, UniProt P15328); assay: Folate-FITC binding competition assay (flow cytometry), FRα on KB cells; conditions: competition with 10 nM Folate-FITC
T1 construct: Human KB nasopharyngeal epidermoid carcinoma cells (expressing FRα); endogenous in cells; host or cells: KB nasopharyngeal epidermoid carcinoma cells
T1 sequence (P15328 25-257): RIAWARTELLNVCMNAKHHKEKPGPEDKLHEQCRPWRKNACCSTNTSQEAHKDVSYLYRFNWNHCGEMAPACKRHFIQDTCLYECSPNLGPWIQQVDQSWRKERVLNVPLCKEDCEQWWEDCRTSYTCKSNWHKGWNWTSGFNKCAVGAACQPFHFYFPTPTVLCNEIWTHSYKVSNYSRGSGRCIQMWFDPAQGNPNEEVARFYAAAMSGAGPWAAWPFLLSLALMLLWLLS
Method: (§1) To assess the binding affinity of the terbium-folate conjugates, a flow cytometry binding competition assay was carried out with folate-FITC and increasing concentrations of terbium-folate conjugates with FRα and FRβ expressing cells. The affinity of FRα and FRβ for the terbium-folate conjugates is expressed relative to folic acid, which is given the value of 1.
(§2) Human KB nasopharyngeal epidermoid carcinoma cells (expressing FRα) and FRβ-transfected Chinese Hamster Ovary cells were cultured in Folate-free RPMI medium (Thermo Fisher Scientific) supplemented with 20% Newborn Calf Serum, 1% antibiotics (penicillin and streptomycin) and 25 mM HEPES, in a humidified 37 °C incubator with 5% CO2 as described by Van der Heijden et al.[4] The culture medium was refreshed every 3 days. Stock solutions (1 mM) of Tb-folate conjugates were made by dissolving in 50 mM NaHCO3 and stored at −20 °C until use. […] Flow cytometry data was analyzed in FlowJo v10.8 Software (BD Life Sciences). […] Data from 6–9 replicative experiments were analyzed. […]
(§3) Considering FRα and FRβ share the same affinity for folic acid and Folate-FITC, relative affinities for Tb-folate compounds were expressed relative to folic acid.[59],[60] The relative affinity was calculated using [drawing 1] […]

FRβ = molecular target: T2, FRβ (Homo sapiens, UniProt P14207); assay: Folate-FITC binding competition assay (flow cytometry), FRβ on CHO/FRβ transfected cells; conditions: competition with 1 nM Folate-FITC
T2 construct: expressed in transfected cells; host or cells: Chinese Hamster Ovary (CHO) cells
T2 sequence (P14207 17-255): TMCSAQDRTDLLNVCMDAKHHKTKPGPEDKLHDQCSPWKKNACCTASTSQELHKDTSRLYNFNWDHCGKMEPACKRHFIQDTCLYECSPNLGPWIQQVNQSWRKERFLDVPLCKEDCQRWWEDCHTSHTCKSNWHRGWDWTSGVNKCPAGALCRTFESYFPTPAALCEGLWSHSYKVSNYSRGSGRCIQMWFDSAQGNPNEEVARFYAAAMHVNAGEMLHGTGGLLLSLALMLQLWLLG
Method: as §1, §2, §3

[3] = UV-vis absorption (molar extinction coefficient); assay type: physicochemical; conditions: H2O, λmax = 281 nm, mixture of regioisomers
Excerpt: The absorption spectrum of folic acid is characterized by two absorption bands in the region of 250–300 and 300–400 nm, which correspond to the π → π* transition for the pterin and the n → π* transition for the p-amino benzoyl acid moieties respectively.[46] […] Differences are observed for TbL,^4 which is red-shifted and broadened due to the overlap with the acetophenone moiety; similar absorbance spectra of acetophenone-folate complexes have been reported by Quici et al.[16]
UV–vis spectra were recorded on a Cary60 UV–vis spectrophotometer fitted with a xenon source lamp or on a Jasco V-770 UV–visible/NIR spectrophotometer.

FR = conditions: cited from earlier work

Compound: CC1(C)C(/C=C/C2=C(Oc3ccc(C[C@H](NC(=O)c4ccc(NCc5cnc6nc(N)[nH]c(=O)c6n5)cc4)C(=O)[O-])cc3)C(=C/C=C3\N(CCCCS(=O)(=O)[O-])c4ccc(S(=O)(=O)[O-])cc4C3(C)C)/CCC2)=[N+](CCCCS(=O)(=O)[O-])c2ccc(S(=O)(=O)[O-])cc21.[H+].[H+].[H+].[H+] [OTL38]
- ε (molar extinction coefficient) [1]: 272 000 M^–1 cm^–1
- Φ (quantum yield) [2]: 15.1%

Compound: Nc1nc(=O)c2nc(CNc3ccc(C(=O)N[C@@H](CCC(=O)O)C(=O)O)cc3)cnc2[nH]1 [ChEBI_27470, folic acid]
- relative binding affinity to FRα (folic acid = 1) (FRα): 1
- relative binding affinity to FRβ (folic acid = 1) (FRβ): 1

Compound: Folate-PEG6-DOTA [L^1αγ]
- ε (molar extinction coefficient) of free ligand [3]: 20013 M^–1 cm^–1

Compound: CN1c2c(nc(N)[nH]c2=O)NCC1CNc1ccc(C(=O)N[C@@H](CCC(=O)O)C(=O)O)cc1 (stereo partly drawn) [5-methyltetrahydrofolate]
- FR affinity, fold lower than folic acid (FR): approximately 10 fold
